Test system: colon cancer (HT-29) cells
Assay: XTT assay, relative viability of colon cancer (HT-29) cells
Assay type: cell-based
Details: after 24 hours
Experimental: Samples were prepared by introducing the nano contrast agents (CIONPs) and the iron oxide (Fe3O4) nanoparticle drug carriers (DOX-CIONPs) prepared in Examples 2 and 3 and anti-cancer medicines (Doxorubicine) into colon cancer (HT-29) cells by concentrations of 0.001, 0.01, 0.1, 1 and 10 mM. After 24 hours, XTT reagent was added to each sample and relative viability of cancer cells according to the concentration of CIONPs, DOX-CIONPs and anti-cancer medicines (Doxorubicine) were measured. The measurement was carried out by comparing optical absorbances of formazan products from the cancer cells using an absorption spectrometer (XTT assay).

SMILES: COc1cccc2c1C(=O)c1c(O)c3c(c(O)c1C2=O)C[C@@](O)(C(=O)CO)C[C@@H]3O[C@H]1C[C@H](N)[C@H](O)[C@H](C)O1 [Doxorubicine]
- cancer cells perished (0.1 mM): 35%
- cancer cells perished (1 mM): 60%
- cancer cells perished (10 nm (so in the source)): 62%
